Results taken from patent US9120749B2, “Quinoline derivatives and MELK inhibitors containing the same” (ONCOTHERAPY SCIENCE, INC., priority 2010, dated 2015).
Read-outs that look alike come from different tables or passages of the source.

How the values were obtained:
[1] = tested on: A549 cells; test: Cell-based assay: anti-proliferative activity, Cell Counting Kit-8, 72 hours (A549); conditions: Homo sapiens, A549, 72 h, 72 hours
Protocol: (§1) 100 micro-L of cell suspension was seeded onto 96-well microtiter plate (ViewPlate-96FTC, PerkinElmer). The initial cell concentration of T47D, A549, BT-549, and HT-1197 were 3,000 cells/well, 2,000 cells/well and 2,500 cells/well, respectively. Cellular growth was determined using Cell Counting Kit-8 (DOJINDO) at 72 hours after the exposure of the candidate inhibitors. […] Accurate IC50 values were calculated as described previously.

[2] = target: MELK (Homo sapiens, UniProt Q14680); test: Kinase assay: MELK activity, phosphorylation of FITC-labeled histone H3 peptide measured by IMAP fluorescence polarization; format: biochemical; conditions: read-out: IC50 (μM) (kinase assay)
MELK, sequence (Q14680 whole entry, looked up): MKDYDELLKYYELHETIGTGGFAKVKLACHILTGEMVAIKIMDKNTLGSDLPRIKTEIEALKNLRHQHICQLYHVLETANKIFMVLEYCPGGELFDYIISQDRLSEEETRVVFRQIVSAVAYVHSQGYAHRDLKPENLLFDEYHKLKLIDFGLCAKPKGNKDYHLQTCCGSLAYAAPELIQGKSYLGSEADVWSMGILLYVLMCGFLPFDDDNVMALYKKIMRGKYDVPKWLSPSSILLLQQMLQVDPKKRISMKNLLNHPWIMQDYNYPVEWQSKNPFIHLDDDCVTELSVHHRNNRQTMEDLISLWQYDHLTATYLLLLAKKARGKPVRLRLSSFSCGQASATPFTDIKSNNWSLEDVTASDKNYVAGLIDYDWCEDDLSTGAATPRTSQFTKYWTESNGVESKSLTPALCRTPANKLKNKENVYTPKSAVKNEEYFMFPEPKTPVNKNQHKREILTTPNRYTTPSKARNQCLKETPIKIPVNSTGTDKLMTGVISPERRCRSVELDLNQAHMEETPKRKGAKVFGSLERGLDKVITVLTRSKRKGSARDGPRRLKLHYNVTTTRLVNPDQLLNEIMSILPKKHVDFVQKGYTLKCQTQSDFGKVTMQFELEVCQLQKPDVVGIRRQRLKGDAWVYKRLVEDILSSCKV
Protocol: MELK activity was determined in the presence or absence of compounds using fluorescein isothiocyanate-labeled (FITC-labeled) histone H3 peptide as a substrate. […] Test compounds were dissolved in DMSO at 12.5 mM and then serially diluted as the DMSO concentration in the assays to be 1%. […] The reaction was stopped by the addition of three fold assay volume of progressive binding solution. Following 0.5 hour incubation at room temperature, fluorescence polarization was measured by Wallac EnVision 2103 multilabel reader (PerkinElmer).

[3] = tested on: HT-1197 cells; test: Cell-based assay: anti-proliferative activity, Cell Counting Kit-8, 72 hours (HT-1197, negative control without MELK expression); conditions: Homo sapiens, HT1197, 72 h, 72 hours
Protocol: (§2) To evaluate the expression status of MELK in several cell lines, western blot analysis was performed using crude cell lysate collected from those cells. Anti-MELK antibody (clone 31, BD Biosciences) was used to visualize the expression.
as §1, with “Active candidate inhibitors against MELK were evaluated for their target-specific cytotoxicity using T47D, A549, BT-549, and HT-1197 cells was used for negative control. 100” for “100”

[4] = tested on: T47D cells; test: Cell-based assay: anti-proliferative activity, Cell Counting Kit-8, 72 hours (T47D); conditions: Homo sapiens, T47D, 72 h
Protocol: as §2
as §1, with “Active candidate inhibitors against MELK were evaluated for their target-specific cytotoxicity using T47D, A549, BT-549, and HT-1197 cells was used for negative control. 100” for “100”

[5] = 50 micro-M ATP, FITC-labeled histone H3 peptide substrate, IMAP fluorescence polarization
[6] = HT1197 cells (negative control, no MELK expression)
[7] = HT1197 cells (negative control)

Row | Compound | IC50 [1] [µM] | IC50 [2, 5] [µM] | IC50 [3, 6] [µM] | IC50 [4] [µM] | IC50 [2] [µM] | IC50 [3, 7] [µM]
1 | CN(C)Cc1ccc(Nc2c(S(C)(=O)=O)cnc3ccc(-c4ccc(O)c(Cl)c4)cc23)cc1 [Example 411, 2-chloro-4-(4-(4-((dimethylamino)methyl)phenylamino)-3-(methylsulfonyl)quinolin-6-yl)phenol] | 0.37 | 0.0091 | 0.63 | 0.29 | – | –
2 | CN(C)Cc1ccc(Nc2c(C#N)cnc3ccc(-c4cc(F)c(O)c(Cl)c4)cc23)cc1 [Example 432, 6-(3-chloro-5-fluoro-4-hydroxyphenyl)-4-(4-((dimethylamino)methyl)phenylamino)quinoline-3-carbonitrile] | 1.1 | 0.056 | 4.9 | 0.98 | – | –
3 | CN1CCN(Cc2ccc(Nc3c(C(=O)C4CC4)cnc4ccc(-c5ccc(O)c(Cl)c5)cc34)cc2)CC1 [Example 406, (6-(3-chloro-4-hydroxyphenyl)-4-(4-((4-methylpiperazin-1-yl)methyl)phenylamino)quinolin-3-yl)(cyclopropyl)methanone] | 0.49 | 0.019 | 3.4 | 1.3 | – | –
4 | CN1CCN(C(=O)CNc2c(C(=O)C3CC3)cnc3ccc(-c4cc(F)c(O)c(Cl)c4)cc23)CC1 [Example 390, 2-(6-(3-chloro-5-fluoro-4-hydroxyphenyl)-3-(cyclopropanecarbonyl)quinolin-4-ylamino)-1-(4-methylpiperazin-1-yl)ethanone] | 2.7 | 0.025 | 10 | 2 | – | –
5 | COc1cc(-c2ccc3ncc(C(=O)C4CC4)c(-c4ccc(CN5CCCC5)cc4)c3c2)cc(Cl)c1O [Example 436, (6-(3-chloro-4-hydroxy-5-methoxyphenyl)-4-(4-(pyrrolidin-1-ylmethyl)phenyl)quinolin-3-yl)(cyclopropyl)methanone] | 0.63 | 0.014 | 4.9 | 0.63 | – | –
6 | CN(C)CCNC(=O)c1ccc(-c2c(C(=O)C3CC3)cnc3ccc(-c4cc(Cl)c(O)c(Cl)c4)cc23)cc1 [Example 451] | 3.8 | 0.0025 | 17 | 0.68 | – | –
7 | CN(C)CC1CCN(c2c(C(=O)C3CCCC3)cnc3ccc(-c4cc(F)c(O)c(Cl)c4)cc23)CC1 [Example 384, (6-(3-chloro-5-fluoro-4-hydroxyphenyl)-4-(4-((dimethylamino)methyl)piperidin-1-yl)quinolin-3-yl)(cyclopentyl)methanone] | 1.9 | 0.0046 | 4 | 2 | – | –
8 | CN1CCN(C(=O)CNc2c(C(=O)C3CC3)cnc3ccc(-c4ccc(O)c(Cl)c4)cc23)CC1 [Example 393, 2-(6-(3-chloro-4-hydroxyphenyl)-3-(cyclopropanecarbonyl)quinolin-4-ylamino)-1-(4-methylpiperazin-1-yl)ethanone] | 2.2 | 0.095 | – | 2.6 | – | –
9 | CN(C)CC(=O)N1CC2CC1CN2c1c(C(=O)C2CC2)cnc2ccc(-c3cc(F)c(O)c(Cl)c3)cc12 (centres unmarked) [Example 455] | 37 | 0.069 | 60 | 12 | – | –
10 | COc1cc(-c2ccc3ncc(C(=O)C4CC4)c(NC4CCC(N5CCC(F)(F)C5)CC4)c3c2)cc(Cl)c1O (centres unmarked) [Example 676, (6-(3-chloro-4-hydroxy-5-methoxyphenyl)-4-(4-(3,3-difluoropyrrolidin-1-yl)cyclohexylamino)quinolin-3-yl)(cyclopropyl)methanone] | – | – | 11 | 1 | 0.29 | –
11 | COc1cc(-c2ccc3ncc(C(=O)C4CC4)c(-c4cn[nH]c4)c3c2)cc(Cl)c1O [Example 536, (6-(3-chloro-4-hydroxy-5-methoxyphenyl)-4-(1H-pyrazol-4-yl)quinolin-3-yl)(cyclopropyl)methanone] | – | – | – | 1.3 | 0.11 | 14
12 | Cc1cc(O)c(Cl)cc1-c1ccc2ncc(C(=O)C3CC3)c(N3CCC(CN(C)C)CC3)c2c1 [Example 448] | 1.7 | – | 7.9 | 2 | – | –
13 | COc1cc(-c2ccc3ncc(C(C)=O)c(Nc4ccc(CN5CCCC5)cc4)c3c2)cc(Cl)c1O [Example 419, 1-(6-(3-chloro-4-hydroxy-5-methoxyphenyl)-4-(4-(pyrrolidin-1-ylmethyl)phenylamino)quinolin-3-yl)ethanone] | 0.84 | – | 5.1 | 0.99 | – | –
14 | COC(=O)c1ccc(-c2ccc3ncc(C(=O)C4CC4)c(N4CCC(CN(C)C)CC4)c3c2)cc1 [Example 481, methyl 4-(3-(cyclopropanecarbonyl)-4-(4-((dimethylamino)methyl)piperidin-1-yl)quinolin-6-yl)benzoate] | – | – | 10 | 10 | 1.4 | –
15 | CN(C)CC1CCN(c2c(C(=O)C3CC3)cnc3ccc(-c4ccc(C(F)F)cc4)cc23)CC1 [Example 465] | – | 0.91 | 5.6 | 8.6 | – | –
16 | CC(=O)c1cnc2ccc(-c3cnc(C#N)nc3)cc2c1Nc1ccc(CN(C)C)cc1 [Example 414, 5-(3-acetyl-4-(4-((dimethylamino)methyl)phenylamino)quinolin-6-yl)pyrimidine-2-carbonitrile] | 1.5 | – | 0.8 | 0.24 | – | –
17 | N[C@H]1CC[C@H](Nc2c(C(=O)C3CC3)cnc3c(F)cc(-c4cc(F)c(O)c(Cl)c4)cc23)CC1 [Example 555] | – | – | – | 0.44 | 5.1 | 10
18 | CCCC(=O)c1cnc2ccc(-c3cc(Cl)c(O)c(Cl)c3)cc2c1Nc1ccc(N2CCNCC2)nc1 [Example 625, 1-(6-(3,5-dichloro-4-hydroxyphenyl)-4-(6-(piperazin-1-yl)pyridin-3-ylamino)quinolin-3-yl)butan-1-one] | – | – | – | 1.5 | 0.15 | 10
19 | COc1cc(-c2ccc3ncc(C(=O)C4CC4)c(Nc4ccc(C5CCCN5C)cn4)c3c2)cc(Cl)c1O (centres unmarked) [Example 444] | 7.6 | – | 10 | 6.8 | – | –
20 | CN(C)Cc1ccc(Nc2c(C(=O)C3CC3)cnc3c(F)cc(-c4cc(Cl)c(O)c(Cl)c4)cc23)cc1 [Example 552, cyclopropyl(6-(3,5-dichloro-4-hydroxyphenyl)-4-(4-((dimethylamino)methyl)phenylamino)-8-fluoroquinolin-3-yl)methanone] | – | – | – | 1.1 | 0.58 | 9
21 | O=C(c1cnc2ccc(-c3cc(Cl)c(O)c(Cl)c3)cc2c1NC1CCC(N2CCC(F)(F)C2)CC1)C1CC1 (centres unmarked) [Example 664, cyclopropyl(6-(3,5-dichloro-4-hydroxyphenyl)-4-(4-(3,3-difluoropyrrolidin-1-yl)cyclohexylamino)quinolin-3-yl)methanone] | – | – | 10 | 1.7 | 0.14 | –
22 | O=C(c1cnc2ccc(-c3cc(F)c(O)c(Cl)c3)cc2c1NC1CCC(N2CCC(F)(F)C2)CC1)C1CC1 (centres unmarked) [Example 675, (6-(3-chloro-5-fluoro-4-hydroxyphenyl)-4-(4-(3,3-difluoropyrrolidin-1-yl)cyclohexylamino)quinolin-3-yl)(cyclopropyl)methanone] | – | – | 4.4 | 0.8 | 0.83 | –
23 | CN[C@H]1CC[C@H](Nc2c(C(C)=O)cnc3ccc(-c4cc(F)c(O)c(Cl)c4)cc23)CC1 [Example 560] | – | – | – | 0.041 | 0.11 | 10
